Reference: publication PMC12388506, “Preclinical Evaluation of 2-Aminobenzothiazole Derivatives: In Silico, In Vitro, and Preliminary In Vivo Studies as Diabetic Treatments and Their Complications” (Molecules, 2025)
Entries after “also recorded” stand apart in the source; their conditions may differ.

Columns and labels:
[1] = tested on: STZ-HFD-induced T2D Wistar rats; assay: 24-element blood chemistry in STZ-HFD-induced T2D model; format: in vivo, rat; design: GGT / TBA / AMY / TG / T-CHOL / GLU: unit not given here; conditions: for ALP / ALT / AST / CK: in U/L (unit assumed); for ALB / GLO / TP: in g/dL (unit assumed); for BUN / CRE / Ca / Mg / P / TBIL / UREA: in mg/dL (unit assumed); for tCO2: in mmol/L (unit assumed); for TP: mean ± SEM, n = 4
Description: (§1) Treatments were administered daily as described above, adjusting the dose according to the weight of the individuals. Fasting glucose levels (6 h fast) were monitored every 7 days until the end of treatments at week 10 (Figure 14). Halfway through the last week of treatment, the OGTT was performed, administering a dose of 1.5 g/Kg of glucose orally and subsequently monitoring capillary blood glucose at 0, 15, 30, 60, 90, and 120 min [62]. In addition, a 24-element blood chemistry was measured in a Celercare V automated dry chemistry analyzer (Tianjin MNCHIP Technologies Co., Ltd., Tianjin, China) at the beginning and end of the model. For this purpose, the blood samples were obtained from the tail of the rat.
(§2) At the end of the study, animals fasted for 12 h and were taken to a humane endpoint, where blood samples were obtained. These were kept at room temperature for 30 min and then centrifuged at 4000 RPM for 15 min at 4 °C. Finally, the serum was used to perform 24-element blood chemistry and quantify Trolox-equivalent TAC [86], TNF-α [87], and IL-6 levels using commercial kits from Merck (Darmstadt, Germany), Sigma-Aldrich (St. Louis, MO, USA), Cat. No. MAK334-1KT, RAB0479-1KT, and RAB0311-1KT, respectively. In addition, insulin was quantified using the Rat Ins1/Insulin ELISA Kit, from Sigma-Aldrich, No. Cat. RAB0904-1KT [89] to determine the HOMA-IR index. All kits were performed according to the manufacturer’s instructions without modifications.

[2] = tested on: STZ-HFD-induced T2D Wistar rats; assay: Subchronic evaluation in STZ-HFD-induced T2D model; format: in vivo, rat; design: HbA1c: unit not given here
Description: In vivo experiments were conducted in an acute and a subchronic model, where Wistar rats (180–220 g) were used. The study covered a total period of 10 weeks and was carried out under the Mexican Standard, and the “Guide for the Care and Use of Laboratory Animals” of the National Research Council and Health Institutes was followed.
At first, animals were housed in polypropylene cages under conditions of controlled temperature (20–25 °C), relative humidity (36–60%), and light/dark cycles, with water ad libitum. Before starting the experiment, they were given a one-week acclimatization period to adapt to their new habitat. Once finalized, animals were fed an HFD for 3 weeks to generate insulin resistance.
After this period, the animals fasted for 12 h and then were administered intraperitoneally with a single dose of 35 mg/Kg of STZ dissolved in a buffer of 0.1 M citrate, pH 4.5 (prepared on the same day of administration). Once administered, the hypercaloric diet was maintained, and 10% sucrose solution was placed on demand for 2 days.
One week after administration, postprandial blood glucose levels were measured by venipuncture using a glucometer. Those animals that maintained a glucose level between 200 and 400 mg/dL were included in the study.
as §1, §2

TNF-α = assay: Ex vivo serum TNF-α quantification; format: in vivo, rat
Description: as §2

[3] = tested on: STZ-HFD-induced T2D Wistar rats; assay: Ex vivo serum total antioxidant capacity (Trolox equivalent); format: in vivo, rat
Description: as §2

IL-6 = assay: Ex vivo serum IL-6 quantification; format: in vivo, rat
Description: as §2

[4] = Observed chemical stability of the isolated compound; format: physicochemical; conditions: neutral (acid) form
Description: Compound 5d was obtained according to the general procedure described. It consists of reacting one molar equivalent of compound 2 with the corresponding carboxylate (L-phenylalanine sodium salt) under refluxing ethanol for 24 h. Under these conditions, the reaction proceeds by nucleophilic attack of the amino group on the carbonimidothioate group of compound 2, with the elimination of gaseous thiomethanol to obtain the sodium salt of SMe-isothiourea 5d, with a yield of 40%. […] Therefore, it was used only as an intermediate for the synthesis of its corresponding methyl ester (8d). The corresponding SMe-isothiureacarbozxylate methyl ester 8d was obtained in 56% yield using one molar equivalent of the SMe-isothiurea sodium salt, with 1.2 equivalents of iodomethane in DMF at room temperature for 24 h, following the general procedure described in the literature. […]
In a flask, L-phenylalanine (202 mg, 1.23 mmol) and NaOH (48.8 mg, 1.2 mmol) were placed in 10 mL of EtOH. […] It was kept at the same temperature for 24 h, and the reaction was monitored with TLC (Hex-AcOEt 7:3). […] Compound 5d was obtained as an acid in the form of a pale white crystal with a yield of 40.0% (182.5 mg, 0.5 mmol) and an mp = 92−94 °C; TLC Rf = 0.44 (Hex-AcOEt 7:3); HPLC tr = 10.7 min; ATR-FTIR νmax (cm^−1): 3155.8, 3067.3, 2925, 2855.6; HRMS (ESI+) 372.0840 m/z calculated for C18H18N3O2S2; found 372.0928 [M + H]^+.

[5] = after the induction of T2D, before treatment
[6] = Table S11, After 5 weeks of treatment
[7] = serum, end of treatment, mean ± SEM, n = 4

Work on `CCc1ccc(CCOc2ccc(CC3SC(=O)NC3=O)cc2)nc1` (centres unmarked) [PGZ, pioglitazone, reference compound] yielded an A/G ([1]; Final) of 1.43 ± 0.05, an AMY ([1]; Final) of 405.75 ± 25.93 and an AST/ALT ([1]; Final) of 4.61 ± 0.51. The BUN/CRE ([1]; Final) was 28.00 ± 3.24, the GGT ([1]; Final) was 1.25 ± 0.19 and the GLU ([1]; Final) was 275.25 ± 84.75. For the same molecule, the T-CHOL ([1]; Final) was 98.00 ± 5.57, the TBA ([1]; Final) was 72.60 ± 16.24 and the TG ([1]; Final) was 151.00 ± 10.42. The ALP ([1]; Final) was 274.00 ± 58.19, the ALT ([1]; Final) was 75.75 ± 6.73 and the AST ([1]; Final) was 343.50 ± 39.59. For the same molecule, the CK ([1]; Final) was over 3000, the ALB ([1]; Final) was 3.78 ± 0.12 and the GLO ([1]; Final) was 2.65 ± 0.12. For the same molecule, the BUN ([1]; Final) was 14.81 ± 1.23, the CRE ([1]; Final) was 0.54 ± 0.04 and the Ca ([1]; Final) was 9.18 ± 0.08. For the same molecule, the Mg ([1]; Final) was 2.40 ± 0.05, the P ([1]; Final) was 8.30 ± 0.47 and the TBIL ([1]; Final) was 0.16 ± 0.02. For the same molecule, the UREA ([1]; Final) was 31.58 ± 2.78, the tCO2 ([1]; Final) was 18.00 ± 0.41 and the TP ([1]; Final) was 6.43 ± 0.22. For the same molecule, the A/G ([1]; Initial) was 1.45 ± 0.03, the AMY ([1]; Initial) was 369.75 ± 26.22 and the AST/ALT ([1]; Initial) was 1.99 ± 0.38. For the same molecule, the BUN/CRE ([1]; Initial) was 25.75 ± 2.59, the GGT ([1]; Initial) was 0.80 ± 0.25 and the GLU ([1]; Initial) was 203.25 ± 19.84. For the same molecule, the T-CHOL ([1]; Initial) was 81.00 ± 1.96, the TBA ([1]; Initial) was 76.43 ± 13.25 and the TG ([1]; Initial) was 108.13 ± 6.46. The ALP ([1]; Initial) was 271.25 ± 44.69, the ALT ([1]; Initial) was 63.5 ± 6.5 and the AST ([1]; Initial) was 119.25 ± 7.96. For the same molecule, the CK ([1]; Initial) was 509 ± 118.04, the ALB ([1]; Initial) was 3.85 ± 0.06 and the GLO ([1]; Initial) was 2.65 ± 0.10. It also gave a BUN ([1]; Initial) of 14.22 ± 1.51, a CRE ([1]; Initial) of 0.56 ± 0.03 and a Ca ([1]; Initial) of 9.30 ± 0.20. It also gave a Mg ([1]; Initial) of 2.09 ± 0.03, a P ([1]; Initial) of 7.55 ± 0.87 and a TBIL ([1]; Initial) of 0.2 ± 0.02. The UREA ([1]; Initial) was 30.40 ± 3.28, the tCO2 ([1]; Initial) was 13.75 ± 0.85 and the TP ([1]; Initial) was 6.5 ± 0.15. The HOMA-IR ([2]; After 5 weeks of treatment) was 2.32 ± 0.407, the R-QUICKI ([2]; After 5 weeks of treatment) was 0.339 ± 0.008 and the HbA1c ([2]; After 5 weeks of treatment, mean ± SEM, n = 4) was 9.633 ± 1.601. The HOMA-IR ([2]; Final (end of 5 weeks treatment), PGZ 30 mg/Kg, 8d 32 mg/Kg, mean ± SEM, n = 4) was 2.32 ± 0.41, the HOMA-IR ([2]; Initial (beginning of treatment), PGZ 30 mg/Kg, 8d 32 mg/Kg, mean ± SEM, n = 4) was 2.59 ± 0.34 and the HOMA-IR [2, 5] was 2.59 ± 0.337. The R-QUICKI [2, 5] was 0.333 ± 0.007, the HbA1c ([2]; after the induction of T2D, before treatment, mean ± SEM, n = 4) was 8.433 ± 0.088 and the “adipogenic effect at necropsy” value ([2]; after treatment) was “clear adipogenic effect”. The “polydipsia (water consumption)” value ([2]; daily oral treatment) was “decreasing the polydipsia after the first week of treatment”, the “redistribution of adipose tissue from visceral to subcutaneous fat” value ([2]; necropsy) was “marked” and the TNF-α (TNF-α; [6]) was 3000.53 ± 519.24 pg/mL. For the same molecule, the TNF-α (TNF-α; [7]) was 3000.53 ± 519.24 pg/mL, the “effect on total antioxidant capacity (TAC)” value [3] was “partial recovery of TAC” and the “TAC Equivalent to Trolox” value [3, 6] was 97.75 ± 1.29 µM. The “TAC Equivalent to Trolox” value [3, 7] was 97.75 ± 1.29 µM, the “effect on IL-6 and TNF-α levels” value (IL-6; IL-6 and TNF-α together) was “significantly reduced IL-6 and TNF-α levels” and the IL-6 (IL-6; [6]) was 234.25 ± 52.05 pg/mL. It also gave an IL-6 (IL-6; [7]) of 234.25 ± 52.05 pg/mL.

For `CS/C(=N/c1nc2ccccc2s1)N[C@@H](Cc1ccccc1)C(=O)O` [5d, (E)-((benzo[d]thiazol-2-ylimino)(methylthio)methyl)-L-phenylalanine], the chemical stability [4] was “decomposes easily under ambient conditions; also recorded: decomposes, even at low temperatures”.
